This is an account of results in patent US11945800B1, “1-cyclopropyl-6-fluoro-4-oxo-7-(4-((5-oxo-2-phenyl-4-(quinolin-2-ylmethylene)-4,5-dihydro-1H-imidazol-1-yl)methyl)piperazin-1-yl)-1,4-dihydroquinoline-3-carboxylic acid as an anti-inflammatory and anticancer compound” (KING FAISAL UNIVERSITY, priority 2023, dated 2024).

The subject of data set [1] is human osteosarcoma cells (MG-63). Kind of data set: Cytotoxicity by SRB assay, osteosarcoma cells. It counts as cell-based. The following applies: MG-63, 72 h, mean±SD. Here is the method:
(§1) The human prostate cancer cells (PC3) and human osteosarcoma cells (MG-63) were obtained from Nawah Scientific Inc. (Mokatam, Cairo, Egypt) and cultured in DMEM (Dulbecco's modified eagle's medium), Gibco, USA, supplemented with fetal bovine serum (FBS) at a concentration of 10% and 100 U/mL of penicillin and streptomycin (PS). The Cells were incubated at 37° C. in a humidified environment that contained 5% CO2.
(§2) The anticancer activity of 1-cyclopropyl-6-fluoro-4-oxo-7-(4-((5-oxo-2-phenyl-4-(quinolin-2-ylmethylene)-4,5-dihydro-1H-imidazol-1-yl)methyl)piperazin-1-yl)-1,4-dihydroquinoline-3-carboxylic acid was assessed against highly aggressive androgen-independent metastatic human prostate cancer cells (PC3) and osteosarcoma (MG-63) cells.
(§3) Cells were seeded in 96-well plates as aliquots of 100 μL cell suspension and incubated in a complete media for 24 h. afterward, cells were treated with 1-cyclopropyl-6-fluoro-4-oxo-7-(4-((5-oxo-2-phenyl-4-(quinolin-2-ylmethylene)-4,5-dihydro-1H-imidazol-1-yl)methyl)piperazin-1-yl)-1,4-dihydroquinoline-3-carboxylic acid at diverse concentrations ranging from 0.01 μM to 100 μM for 72 h. Then, cells were fixed at 4° C. for one hour with 150 μL of 10% trichloroacetic acid (TCA). After washing the cells five times with distilled water, 70 μL of sulforhodamine (SRB) solution (0.4% w/v) was added and incubated for 10 min at room temperature in a dark place. Cells were washed with 1% acetic acid three times and allowed to air-dry. Then, 150 μL of Tris pH 10.5 (10 mM) was added, and the absorbance was measured at 540 nm using a BMG LABTECH®-FLUOstar Omega microplate reader (Ortenberg, Germany). Half maximal inhibitory concentrations (IC50) values were calculated for each experiment using GraphPad Prism 6 software. IC50 values were reported as mean±SD.
(§4) The inhibition was calculated using the following equation: Inhibition %=100−Average Viability

In data set [2] the test system is human prostate cancer cells (PC3). In words: Cytotoxicity by SRB assay, prostate cancer cells. Type of data set: cell-based. As to conditions: for IC50: PC-3, 72 h, mean±SD. Here is the method:
as §1, §2, §3, §4

The next data set addresses Bovine Serum Albumin (Bos taurus, UniProt P02769). In words: Bovine Serum Albumin assay (BSA), inhibition of protein denaturation. As to conditions: pH 6.4, read-out: percentage inhibition of precipitation (protein denaturation). It counts as biochemical. The protocol: In vitro-inflammatory activities of the tested samples were determined using a modified method of the BSA assay reported by Williams et al. BSA solution (0.4%, w/v) was prepared in Tris Buffered Saline. The pH was adjusted to 6.4 with glacial acetic acid. Different dilutions of 20, 40, 60, 80, and 100 μg/mL of the stock solutions were added to test tubes containing 1 mL of 0.4%, w/v BSA buffer solution. Both negative (solvent) and positive (aspirin) controls were assayed in a similar manner. The solutions were then heated in a water bath at 72° C. for 10 minutes and cooled for 20 minutes under laboratory conditions. The turbidity of the solutions (level of protein precipitation) was measured at 660 nm in Spectrophotometer (V-770 UV-Visible/NIR Spectrophotometer).
The percentage inhibition of precipitation (protein denaturation) was determined relative to the negative control using the following equation: […]

Bovine Serum Albumin, sequence (P02769 25-607): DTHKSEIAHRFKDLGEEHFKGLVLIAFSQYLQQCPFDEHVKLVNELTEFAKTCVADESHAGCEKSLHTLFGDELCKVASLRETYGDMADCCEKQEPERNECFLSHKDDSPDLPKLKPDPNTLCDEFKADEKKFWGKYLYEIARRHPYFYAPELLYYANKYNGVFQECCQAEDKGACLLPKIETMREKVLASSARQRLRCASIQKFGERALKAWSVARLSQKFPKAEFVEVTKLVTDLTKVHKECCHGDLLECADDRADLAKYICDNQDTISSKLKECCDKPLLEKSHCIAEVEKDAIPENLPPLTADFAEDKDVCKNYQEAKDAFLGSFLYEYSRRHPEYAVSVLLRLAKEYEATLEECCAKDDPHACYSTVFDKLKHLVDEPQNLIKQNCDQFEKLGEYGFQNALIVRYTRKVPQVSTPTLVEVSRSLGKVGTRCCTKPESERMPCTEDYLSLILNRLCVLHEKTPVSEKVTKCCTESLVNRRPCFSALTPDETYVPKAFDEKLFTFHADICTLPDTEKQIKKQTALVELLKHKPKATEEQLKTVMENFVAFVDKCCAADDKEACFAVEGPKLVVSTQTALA

Take `O=C(O)c1cn(C2CC2)c2cc(N3CCN(CN4C(=O)/C(=C\c5ccc6ccccc6n5)N=C4c4ccccc4)CC3)c(F)cc2c1=O` [Compound 4, 1-cyclopropyl-6-fluoro-4-oxo-7-(4-((5-oxo-2-phenyl-4-(quinolin-2-ylmethylene)-4,5-dihydro-1H-imidazol-1-yl)methyl)piperazin-1-yl)-1,4-dihydroquinoline-3-carboxylic acid]: the melting point was 231 to 235 °C. In addition, the IC50 in data set [1] (Homo sapiens) is under 4 µM. This compound also registered an IC50 in data set [1] (listed as Our Product) of 3.38 ± 0.2 µM. In data set [2] (Homo sapiens, 72 h), this compound had an IC50 of under 4 µM. The same compound displayed an inhibition at 10 µg/mL in data set [2] (Homo sapiens, 72 h, Prostate cancer (PC-3), 10 μg/ml) of 94%. In data set [2] (listed as Our Product), this compound had an IC50 of 2.88 ± 0.03 µM. The Inhibition % in data set [2] (Prostate cancer (PC-3), 10 μg/ml, 72 h) is listed as 94.32%. For the same compound, the inhibition at 100 µg/mL on Bovine Serum Albumin is 88.1%.
Consider `COc1cccc2c1C(=O)c1c(O)c3c(c(O)c1C2=O)C[C@@](O)(C(=O)CO)C[C@@H]3O[C@H]1C[C@H](N)[C@H](O)[C@H](C)O1` [DOX, Doxorubicin, reference compound], for which the IC50 stood at 9.4 ± 1.1 µM in data set [1] (Homo sapiens) and 7.6 ± 0.45 µM in data set [2] (Homo sapiens, 72 h).
